{
  "source": "patent US20150064227A1",
  "about": "“Sporicidal Formulation Including Botanical Extracts/Botanical-Derived Ingredients” (priority 2011, published 2015)",
  "data": [
    {"tested_on": "bacterial spores", "experiment": "Sporicidal Efficacy Test, spore species not given", "format": "cell-based", "conditions": "under the Sporicidal Efficacy Test; concentration not given", "from_the_text": "(§1) To determine the kill rate of solutions of interest against bacterial spores.\n(§2) Materials: • 1. Test solutions of interest • 2. Clostridium difficile ATCC 43593 • 3. Geobacillus stearothermophilus CICC 10142 • 4. Filter sterilized MilliQ water • 5. Neutralization broth (prepared according to directions below) • 6. Brain Heart Infusion (BHI) agar plates with 0.15% Sodium Taurocholate • 7. Tryptic Soy Agar (TSA) plates • 8. Taurocholic acid sodium salt hydrate (Sigma-Aldrich T-4009) • 9. Phosphate buffered saline (PBS) pH 7.2 • 10. Fetal Bovine Serum (FBS) • 11. Sterile plating beads • 12. Sterile Eppendorf vials (1.5 mL) • 13. Sterile tubes (15 mL) • 14. Pipettes and sterile pipette tips (100 μL and 1000 μL) • 15. Incubator capable of 37±3° C. • 16. Anaerobic rectangular jar (7 Liter AnaeroPack System commercially available from Mitsubishi Gas Chemical Co.) with 3 GasPak satchels (BD GasPak EZ, #260678)\n(§3) Procedure: • 1. Prepare culture stock of organism of interest to 10^7 CFU/ml in PBS. • 2. Thoroughly vortex the stock culture for ten minutes at medium-high speed. • 3. Dilute a small portion of the stock culture in MilliQ filter sterilized water and add FBS soil load to the inoculum to achieve a concentration of 5% v/v FBS. • 4. Place the inoculum in a sonicating water bath for five cycles of one minute on, one minute off • 5. Add 100 μL of spore culture to sterile vial containing 900 μL of test solution and vortex. • 6. After the test exposure time, vortex the vials. • 7. Transfer 100 μL of test solution and spore mixture to sterile tubes containing 900 μL neutralization broth to neutralize. • 8. Place the neutralized samples in a sonicating water bath for five cycles of one minute on, one minute off • 9. Vortex each tube. For C. difficile, pipette 100 μL of each neutralized sample on BHI+0.15% sodium taurocholate media plates (prepared in lab according to dehydrated powder instructions). For G. stearothermophilus, pipette 100 μL of each neutralized sample onto TSA plates. Spread using sterile beads. • 10. Prepare a control sample by adding the spore culture to 900 μL of filter sterilized MQ water and repeat steps 3-6 above. Dilute control code to achieve 10^2 CFU/ml. • 11. For C. difficile, place plates in anaerobic jars or boxes (with appropriate number of catalase pouches) or in the anaerobic chamber and incubate for 48±8 hours at 37±3° C. For G. stearothermophilus, incubate plates aerobically for 48±8 hours at […]. • 12. After incubation, enumerate colonies and record results. Calculate Log10 reduction by comparing the number of colonies recovered from the test solution versus those recovered with the control.\n(§4) Neutralization Broth Preparation: • 1. Mix the following ingredients: • 1 L Letheen broth • 0.3% ppm Lecithin • 3% ppm Tween 80 • 0.1% ppm Histidine • 2. Solution is sterilized by autoclave. • 3. Catalase (0.1-0.2%) is added when completely cooled and then filter sterilized.", "values": [
      {"compound": "NCCC(=O)O", "note": "[β-alanine]", "sporicidal activity (in words)": "None of these ingredients derived from botanical extracts illustrated sporicidal activity"},
      {"compound": "CC(C)=CCC[C@]1(C)C=Cc2c(O)c3c(c(CC=C(C)C)c2O1)O[C@]12C(=C[C@@H]4C[C@H]1C(C)(C)O[C@@]2(C/C=C(/C)C(=O)O)C4=O)C3=O", "note": "[Gambogic acid]", "sporicidal activity (in words)": "demonstrated sporicidal activity"},
      {"compound": "COC(=O)C1=CO[C@@H](O[C@@H]2O[C@H](CO)[C@@H](O)[C@H](O)[C@H]2O)[C@@H]2C(CO)=CC[C@H]12", "note": "[geniposide]", "sporicidal activity (in words)": "None of these ingredients derived from botanical extracts illustrated sporicidal activity"},
      {"compound": "Cc1coc2c1C(=O)C(=O)c1c-2ccc2c1CCCC2(C)C", "note": "[tanshinone IIA]", "sporicidal activity (in words)": "None of these ingredients derived from botanical extracts illustrated sporicidal activity"},
      {"compound": "O=c1c(OC2OC(CO)C(O)C(O)C2O)c(-c2ccc(O)c(O)c2)oc2cc(O)cc(O)c12", "note": "(stereo not drawn) [isoquercetrin]", "sporicidal activity (in words)": "None of these ingredients derived from botanical extracts illustrated sporicidal activity"},
      {"compound": "CC(C)=CCc1cc2c(cc1O)O[C@H](c1ccc(O)cc1)CC2=O", "note": "[bavachin]", "sporicidal activity (in words)": "None of these ingredients derived from botanical extracts illustrated sporicidal activity"},
      {"compound": "C[C@H](N)C(=O)O", "note": "[L-alanine]", "sporicidal activity (in words)": "None of these ingredients derived from botanical extracts illustrated sporicidal activity"},
      {"compound": "O=c1c(O)c(-c2ccc(O)c(O)c2)oc2cc(O)cc(O)c12", "note": "[quercetin]", "sporicidal activity (in words)": "None of these botanical extracts illustrated sporicidal activity"},
      {"compound": "O=C(O)[C@@H]1CCCN1", "note": "[L-proline]", "sporicidal activity (in words)": "None of these ingredients derived from botanical extracts illustrated sporicidal activity"},
      {"compound": "bavachinin", "sporicidal activity (in words)": "None of these ingredients derived from botanical extracts illustrated sporicidal activity"},
      {"compound": "CC12CCC(CC1)C(C)(C)O2", "note": "[cineole]", "sporicidal activity (in words)": "None of these ingredients derived from botanical extracts illustrated sporicidal activity"},
      {"compound": "COc1ccc2ccc(=O)oc2c1CC=C(C)C", "note": "[osthole]", "sporicidal activity (in words)": "None of these botanical extracts illustrated sporicidal activity"},
      {"compound": "O=C(O)c1ccc(O)c(O)c1", "note": "[protocatechuic acid]", "sporicidal activity (in words)": "None of these ingredients derived from botanical extracts illustrated sporicidal activity"},
      {"compound": "O=c1c(-c2ccc(O)cc2)coc2cc(O)cc(O)c12", "note": "[genistein]", "sporicidal activity (in words)": "None of these botanical extracts illustrated sporicidal activity"},
      {"compound": "COc1cc(/C=C/C(=O)O)ccc1O", "note": "[ferulic acid]", "sporicidal activity (in words)": "None of these ingredients derived from botanical extracts illustrated sporicidal activity"},
      {"compound": "Cc1cccc2c3c(ccc12)C1=C(C(=O)C3=O)[C@@H](C)CO1", "note": "[dihydrotanshinone]", "sporicidal activity (in words)": "None of these ingredients derived from botanical extracts illustrated sporicidal activity"},
      {"compound": "O=c1c(O)c(-c2ccc(O)cc2)oc2cc(O)cc(O)c12", "note": "[kaempferol]", "sporicidal activity (in words)": "None of these botanical extracts illustrated sporicidal activity"},
      {"compound": "CC(C)=CCc1cc(-c2coc3cc(O)ccc3c2=O)ccc1O", "note": "[neobavaisoflavone]", "sporicidal activity (in words)": "None of these ingredients derived from botanical extracts illustrated sporicidal activity"},
      {"compound": "O=c1c(-c2ccc(O)cc2)coc2c([C@@H]3O[C@H](CO)[C@@H](O)[C@H](O)[C@H]3O)c(O)ccc12", "note": "[puerarin]", "sporicidal activity (in words)": "None of these botanical extracts illustrated sporicidal activity"},
      {"compound": "O=c1cc(-c2ccccc2)oc2cc(O)c(O)c(O)c12", "note": "[noroxylin]", "sporicidal activity (in words)": "None of these botanical extracts illustrated sporicidal activity"},
      {"compound": "OC[C@H]1O[C@@H](OCCc2ccc(O)cc2)[C@H](O)[C@@H](O)[C@@H]1O", "note": "[salidroside]", "sporicidal activity (in words)": "None of these botanical extracts illustrated sporicidal activity"},
      {"compound": "O=C(O)c1ccc(O)cc1", "note": "[p-hydroxybenzoic acid]", "sporicidal activity (in words)": "None of these ingredients derived from botanical extracts illustrated sporicidal activity"},
      {"compound": "CC(C)=CCOc1c2occc2cc2ccc(=O)oc12", "note": "[imperatonin]", "sporicidal activity (in words)": "None of these ingredients derived from botanical extracts illustrated sporicidal activity"},
      {"compound": "CC(C)=CCCC1(C)CC(O)c2c(O)c3c(c(CC=C(C)C)c2O1)OC12C(=CC4CC1C(C)(C)OC2(C/C=C(\\C)C(=O)O)C4=O)C3=O", "note": "(stereo not drawn) [Neogambogic acid]", "sporicidal activity (in words)": "demonstrated sporicidal activity"},
      {"compound": "O=c1cc(-c2ccc(O)c(O)c2)oc2cc(O)cc(O)c12", "note": "[luteolin]", "sporicidal activity (in words)": "None of these botanical extracts illustrated sporicidal activity"},
      {"compound": "CC1(C)CC[C@]2(C(=O)O)CC[C@]3(C)C(=CC[C@@H]4[C@@]5(C)CC[C@H](O)C(C)(C)[C@@H]5CC[C@]43C)[C@@H]2C1", "note": "[oleanolic acid]", "sporicidal activity (in words)": "None of these ingredients derived from botanical extracts illustrated sporicidal activity"},
      {"compound": "CC(C)=CCOc1c2ccoc2cc2oc(=O)ccc12", "note": "[isoimperatorin]", "sporicidal activity (in words)": "None of these ingredients derived from botanical extracts illustrated sporicidal activity"},
      {"compound": "COc1ccc(-c2oc3c(CC=C(C)C)c(O)cc(O)c3c(=O)c2O)cc1", "note": "[icaritin]", "sporicidal activity (in words)": "None of these ingredients derived from botanical extracts illustrated sporicidal activity"},
      {"compound": "O=C(O)C=Cc1ccc(O)cc1", "note": "[p-hydroxy-cinnamic acid]", "sporicidal activity (in words)": "None of these botanical extracts illustrated sporicidal activity"},
      {"compound": "CC[C@H](/C=C/[C@@H](C)[C@H]1CC[C@H]2[C@@H]3CC=C4C[C@@H](O)CC[C@]4(C)[C@H]3CC[C@]12C)C(C)C", "note": "[stigmasterol]", "sporicidal activity (in words)": "None of these ingredients derived from botanical extracts illustrated sporicidal activity"},
      {"compound": "O=C(O)/C=C/c1ccc(O)c(O)c1", "note": "[caffeic acid]", "sporicidal activity (in words)": "None of these ingredients derived from botanical extracts illustrated sporicidal activity"}
    ]},
    {"tested_on": "C. diff. spores (Clostridium difficile ATCC 43593)", "experiment": "Sporicidal Efficacy Test against C. diff. spores", "format": "cell-based", "conditions": "botanical-derived ingredient 5.9 mg/ml in 75 % ethanol / 25 % water by volume; 5 min contact time", "from_the_text": "as §1, §2, §3, §4", "values": [
      {"compound": "C[C@H]1COC2=C1C(=O)C(=O)c1c2ccc2c1CCCC2(C)C", "note": "[Cryptotanshinone]", "Log Reduction (5 min contact time)": 3.43}
    ]},
    {"tested_on": "C. diff. spores (Clostridium difficile ATCC 43593)", "experiment": "Sporicidal Efficacy Test against C. diff. spores", "format": "cell-based", "conditions": "botanical-derived ingredient 10 mg/ml in 75 % ethanol / 25 % water by volume; 5 min contact time", "from_the_text": "as §1, §2, §3, §4", "values": [
      {"compound": "CC(C)=CCC[C@]1(C)C=Cc2c(O)c3c(c(CC=C(C)C)c2O1)O[C@]12C(=C[C@@H]4C[C@H]1C(C)(C)O[C@@]2(C/C=C(/C)C(=O)O)C4=O)C3=O", "note": "[Gambogic acid]", "Log Reduction (5 min contact time)": 3.96},
      {"compound": "CC(C)=CCCC1(C)CC(O)c2c(O)c3c(c(CC=C(C)C)c2O1)OC12C(=CC4CC1C(C)(C)OC2(C/C=C(\\C)C(=O)O)C4=O)C3=O", "note": "(stereo not drawn) [Neogambogic acid]", "Log Reduction (5 min contact time)": 3.96}
    ]},
    {"tested_on": "C. diff. spores (Clostridium difficile ATCC 43593)", "experiment": "Sporicidal Efficacy Test against C. diff. spores", "format": "cell-based", "conditions": "concentration not given", "from_the_text": "as §1, §2, §3, §4", "values": [
      {"compound": "Cc1coc2c1C(=O)C(=O)c1c-2ccc2c1CCCC2(C)C", "note": "[tanshinone IIA]", "sporicidal activity against C. diff. (in words)": "no detectable effect"},
      {"compound": "Cc1cccc2c3c(ccc12)C1=C(C(=O)C3=O)[C@@H](C)CO1", "note": "[dihydrotanshinone]", "sporicidal activity against C. diff. (in words)": "no detectable effect"}
    ]}
  ]
}
